Assay results from ChEMBL document CHEMBL2086295, “The design, synthesis, in silico ADME profiling, antiplasmodial and antimycobacterial evaluation of new arylamino quinoline derivatives” (Eur J Med Chem, 2012).
pIC50: −log10 of the molar value. In brackets after ≈: the same amount, converted by molar mass.

How the values were obtained:
[1] = Kinetic solubility of the compound at pH 7.4; type: physicochemical; conditions: buffer, read-out: Kinetic_solubility
[2] = test system: Mycobacterium tuberculosis; assay: Antimycobacterial activity against Mycobacterium tuberculosis H37Rv ATCC 27294 after 7 days by microplate alamar blue assay; type: functional; conditions: for MIC90: Mycobacterium tuberculosis, H37Rv ATCC 27294, 168 h
Plasmodium falciparum [3] = assay: Antiplasmodial against chloroquine-sensitive Plasmodium falciparum 3D7 assessed as inhibition of [3H]hypoxanthine incorporation after 24 hrs by scintillation counting; type: functional, organism-based
Plasmodium falciparum [4] = assay: Antiplasmodial against chloroquine-rsistant Plasmodium falciparum K1 assessed as inhibition of [3H]hypoxanthine incorporation after 24 hrs by scintillation counting; type: functional, organism-based
Plasmodium falciparum [5] = assay: Antiplasmodial against chloroquine-rsistant Plasmodium falciparum W2 after 2 days by flow cytometry; type: functional, organism-based; conditions: W2, 48 h
[6] = test system: Mycobacterium tuberculosis; assay: Antimycobacterial activity against Mycobacterium tuberculosis H37Rv ATCC 27294 after 10 days by low oxygen recovery assay; type: functional; conditions: for MIC90: Mycobacterium tuberculosis, H37Rv ATCC 27294, 240 h

Row | SMILES | solubility kinetic [1] [µM] | inhibition (INH) [2] [%] | MIC90 [2] [µM] | pIC50 (Plasmodium falciparum [3]) | pIC50 (Plasmodium falciparum [4]) | pIC50 (Plasmodium falciparum [5]) | inhibition (INH) [6] [%] | MIC90 [6] [µM]
1 | COc1ccc2nccc(C(c3nnnn3C(C)(C)C)N3CCOCC3)c2c1 (stereo not given) | 179 (≈ 68.3 µg/mL) | 0 | > 128 | 6.01 | 5.91 | < 5.00 | 32 | > 128
2 | COc1ccc2nccc(C(c3nnnn3C(C)(C)C)N(C)C)c2c1 (stereo not given) | 189 (≈ 64.5 µg/mL) | 16 | > 128 | 5.88 | 5.88 | < 5.00 | 42 | > 128
3 | CCN(CC)C(c1cc(C(F)(F)F)nc2c(C(F)(F)F)cccc12)c1nnnn1C(C)(C)C (stereo not given) | – | – | > 160 | – | 5.63 | – | – | –
4 | COc1ccc2nccc(C(c3nnnn3C(C)(C)C)N3CCN(C)CC3)c2c1 (stereo not given) | – | 0 | > 128 | 4.77 | 5.10 | 5.08 | 0 | > 128
5 | COc1ccc2nccc(C(c3nnnn3C(C)(C)C)N3CCCCC3)c2c1 (stereo not given) | 114 (≈ 43.5 µg/mL) | 98 | 92.5 (≈ 35.2 µg/mL) | 6.19 | 5.58 | < 5.00 | 64 | > 128
6 | COc1ccc2nccc(C(c3nnnn3C(C)(C)C)N3CCCC3)c2c1 (stereo not given) | – | 24 | > 128 | 4.86 | 4.86 | < 5.00 | 30 | > 128
7 | O[C@@H](c1cc(C(F)(F)F)nc2c(C(F)(F)F)cccc12)[C@H]1CCCCN1 (relative stereo) [(S,R)-MEFLOQUINE] | – | – | 10 (≈ 3.78 µg/mL) | – | – | – | – | –
8 | C=C[C@H]1CN2CC[C@H]1C[C@H]2[C@H](O)c1ccnc2ccc(OC)cc12 [QUININE] | – | 95 | 120 (≈ 38.8 µg/mL) | 9.15 | 7.69 | 7.73 | 98 | 122 (≈ 39.6 µg/mL)
9 | NC[C@H]1O[C@H](O[C@H]2[C@H](O)[C@@H](O[C@H]3O[C@H](CO)[C@@H](O)[C@H](N)[C@H]3O)[C@H](N)C[C@@H]2N)[C@H](O)[C@@H](O)[C@@H]1O [KANAMYCIN] | – | – | 3.12 (≈ 1.51 µg/mL) | – | – | – | – | –
10 | CO[C@H]1/C=C/O[C@@]2(C)Oc3c(C)c(O)c4c(O)c(c(/C=N/N5CCN(C)CC5)c(O)c4c3C2=O)NC(=O)/C(C)=C\C=C\[C@H](C)[C@H](O)[C@@H](C)[C@@H](O)[C@@H](C)[C@H](OC(C)=O)[C@@H]1C [RIFAMPIN] | – | 100 | 0.05 (≈ 0.0411 µg/mL) | – | – | – | 98 | 1.93 (≈ 1.59 µg/mL)
11 | CN[C@@H]1[C@H](O[C@H]2[C@H](O[C@H]3[C@H](O)[C@@H](O)[C@H](N=C(N)N)[C@@H](O)[C@@H]3N=C(N)N)O[C@@H](C)[C@]2(O)C=O)O[C@@H](CO)[C@H](O)[C@H]1O [STREPTOMYCIN] | – | – | 0.4 (≈ 0.233 µg/mL) | – | – | – | – | –
12 | CN(C)C(c1cc(C(F)(F)F)nc2c(C(F)(F)F)cccc12)c1nnnn1C(C)(C)C (stereo not given) | – | – | > 160 | – | 5.34 | – | – | –
13 | CCN(CC)C(c1ccnc2ccc(OC)cc12)c1nnnn1C(C)(C)C (stereo not given) | 137 (≈ 50.4 µg/mL) | 83 | > 128 | 5.62 | 5.62 | < 5.00 | 94 | 123 (≈ 45.4 µg/mL)
14 | NNC(=O)c1ccncc1 [ISONIAZID] | – | 92 | 0.23 (≈ 0.0315 µg/mL) | – | – | – | 64 | > 128
15 | COc1ccc2nccc(C(c3nnn[nH]3)N3CCOCC3)c2c1 (stereo not given) | 202 (≈ 65.9 µg/mL) | 0 | > 128 | 5.06 | 5.17 | < 5.00 | 1 | > 128
16 | O=[N+]([O-])c1cn2c(n1)OC[C@@H](OCc1ccc(OC(F)(F)F)cc1)C2 [PRETOMANID] | – | 99 | 0.12 (≈ 0.0431 µg/mL) | – | – | – | 100 | 3.78 (≈ 1.36 µg/mL)
